Assay results from paper PMC9863764, “Roles of Human Liver Cytochrome P450 Enzymes in Tenatoprazole Metabolism” (Pharmaceutics, 2022).
Several values for one entry are separate records, joined by “and”; a condition that tells them apart may be missing. Equal entries are not always repeated.

Experiments:
[1] = biological target: T1, human CYP2C19 (Homo sapiens, UniProt P33261); test: Steady-state kinetics of tenatoprazole oxidation by recombinant CYP2C19; format: in vitro ADME
T1 construct: made in house; host or cells: Escherichia coli (membrane fractions)
Protocol: Pooled liver microsomes from human samples were obtained from ThermoFisher Scientific (Waltham, MA, USA). […] Membrane fractions expressing both P450 and CPR of E. coli were prepared as described previously and were used for the catalytic activity assays. […] The reaction was started by adding NGS and the incubation was continued for the indicated time at 37 °C. Incubation was then stopped by adding ice-chilled ethyl acetate (0.50 mL) and omeprazole (IS) was added to a final concentration of 20 μM. […] Phenomenex, Torrance, CA, USA). The products formed were analyzed by HPLC at […]. […] The kinetic parameters (kcat and Km) were determined by using a Michaelis-Menten nonlinear regression analysis with GraphPad Prism (GraphPad Software, San Diego, CA, USA).

[2] = biological target: T2, CYP2D6 (Homo sapiens, UniProt P10635); test: Tenatoprazole oxidation by recombinant CYP2D6; format: in vitro ADME; conditions: substrate tenatoprazole 0.10 mM, 0.20 μM CYP2D6
T2 construct: made in house; host or cells: Escherichia coli (membrane fractions)
Protocol: Pooled liver microsomes from human samples were obtained from ThermoFisher Scientific (Waltham, MA, USA). Recombinant human P450s were heterologously expressed in Escherichia coli with a pCW vector containing human P450 cDNA (CYP 3A4, 2C9, 2C19, 1A2, 1B1, 2E1, 2D6, and 2A6) and rat NADPH-P450 reductase (CPR). Membrane fractions expressing both P450 and CPR of E. coli were prepared as described previously and were used for the catalytic activity assays.
The reaction mixture included 0.20 μM P450, 0.40 μM CPR, and tenatoprazole (0.10 mM) in 0.25 mL of 0.10 M potassium phosphate buffer (pH 7.4). The reaction was started by adding NGS and the incubation was continued for the indicated time at 37 °C. Incubation was then stopped by adding ice-chilled ethyl acetate (0.50 mL) and omeprazole (IS) was added to a final concentration of 20 μM. The mixtures were vortexed for 2 min, centrifuged at 1000× g for 20 min, and then the organic layer was taken for drying under nitrogen gas stream. The residues were dissolved in 180 μL of HPLC mobile phase and 30 μL was injected onto a Gemini C18 column (4.6 × 150 mm, 5 μm; Phenomenex, Torrance, CA, USA). The products formed were analyzed by HPLC at A302. […]

T1 sequence (P33261 whole entry): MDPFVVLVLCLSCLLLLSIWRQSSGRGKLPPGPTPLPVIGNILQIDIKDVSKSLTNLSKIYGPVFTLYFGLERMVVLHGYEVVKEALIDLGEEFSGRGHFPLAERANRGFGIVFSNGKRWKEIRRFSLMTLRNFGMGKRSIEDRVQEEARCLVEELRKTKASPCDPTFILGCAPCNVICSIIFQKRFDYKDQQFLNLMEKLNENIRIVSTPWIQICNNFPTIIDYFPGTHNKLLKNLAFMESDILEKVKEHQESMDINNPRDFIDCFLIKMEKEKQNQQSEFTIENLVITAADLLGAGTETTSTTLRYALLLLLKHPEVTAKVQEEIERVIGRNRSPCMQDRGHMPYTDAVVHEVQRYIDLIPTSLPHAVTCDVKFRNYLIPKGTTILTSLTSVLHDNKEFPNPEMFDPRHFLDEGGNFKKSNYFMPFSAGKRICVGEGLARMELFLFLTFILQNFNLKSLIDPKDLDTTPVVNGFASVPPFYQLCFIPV
T2 sequence (P10635 whole entry): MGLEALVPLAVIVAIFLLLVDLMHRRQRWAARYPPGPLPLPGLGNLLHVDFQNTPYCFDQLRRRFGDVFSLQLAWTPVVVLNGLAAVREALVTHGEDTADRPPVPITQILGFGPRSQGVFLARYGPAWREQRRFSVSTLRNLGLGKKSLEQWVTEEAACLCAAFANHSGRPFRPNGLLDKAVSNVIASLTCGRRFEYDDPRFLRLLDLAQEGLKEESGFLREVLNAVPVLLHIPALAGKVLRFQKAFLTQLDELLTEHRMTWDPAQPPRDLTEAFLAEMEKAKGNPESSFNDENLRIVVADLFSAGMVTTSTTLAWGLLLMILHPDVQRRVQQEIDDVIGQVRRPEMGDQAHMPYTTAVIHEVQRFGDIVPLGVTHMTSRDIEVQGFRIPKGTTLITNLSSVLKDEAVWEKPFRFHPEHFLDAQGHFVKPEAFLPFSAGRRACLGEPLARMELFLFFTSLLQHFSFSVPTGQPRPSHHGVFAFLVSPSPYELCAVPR

## COc1ccc2[nH]c([S+]([O-])Cc3ncc(CO)c(OC)c3C)nc2n1 (stereo not drawn) [5′-OH tenatoprazole, 5′-hydroxy tenatoprazole]
[1]; 5′-OH tenatoprazole formation from tenatoprazole
  fold higher catalytic efficiency of CYP2C19 than CYP3A4: 63 fold
[1]; substrate tenatoprazole (1–500 μM), recombinant CYP2C19 0.20 μM, 37 °C, 5 min, label = product formed
  kcat of product formation: 0.0667 s⁻¹ and 0.0667 ± 0.0033 s⁻¹
[2]
  formation rate of metabolite: 0.1 min⁻¹
